Structures can show the parent of a compound that is named as a salt. Where two headings read alike, the source gives them in different places. Where a SMILES comes first, the peptide text is derived from it. [ ]: non-standard residue; d: D form. The star is where a group is joined. Tos = Cc1ccc(S(=O)(=O)*)cc1
What was measured:
[1] = molecular target: T1, plasmin (Homo sapiens, UniProt P00747); experiment: Inhibitory activity on fibrin decomposition by plasmin (natural substrate); type: biochemical; design: Standard human serum (0.1 ml); from tissue; details: concentration doubling time for complete dissolution, 25° C.
Experimental: The determination was carried out by the method of Okamoto et al. (see Keio Journal of Medicine, vol. 11, p. 105 (1962).
Standard human serum (0.1 ml), 0.4 ml of each of 1/20 M potassium phosphate sodium physiological salt buffer solutions (pH 7.4) containing various concentrations of each inhibitor, and 0.1 ml of a solution of streptokinase in physiological saline (1000 U/ml) were stirred and then cooled at 0° C. for 10 minutes. Thereto was added 0.05 ml of a solution of thrombin in physiological saline (100 NIHU/ml, mfd. by Parke Davis Co. Ltd.) at 0° C. After standing for 1 minute, 0.3 ml of a 0.33% solution of bovine fibrinogen (F-4753, available from Sigma Chemical Co.) in physiological saline was added, and the resulting mixture was allowed to stand at 25° C. The solubility was measured every minute by the standard of judgement of Nakamura (see Allergy, vol. 5, p. 1 (1956)) and the time required for complete dissolution was determined. A concentration of the inhibitor at which said time is twice that required in the absence of the inhibitor was determined as IC50.
Target sequence in this assay (P00747 581-810 limits assumed): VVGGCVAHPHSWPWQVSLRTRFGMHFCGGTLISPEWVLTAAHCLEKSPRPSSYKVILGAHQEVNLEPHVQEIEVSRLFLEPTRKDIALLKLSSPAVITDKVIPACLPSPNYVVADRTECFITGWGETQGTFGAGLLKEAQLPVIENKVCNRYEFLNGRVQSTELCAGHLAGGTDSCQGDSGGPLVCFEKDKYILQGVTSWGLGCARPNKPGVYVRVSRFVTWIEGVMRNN
Target sequence in this assay (P00747 97-580 partner limits assumed): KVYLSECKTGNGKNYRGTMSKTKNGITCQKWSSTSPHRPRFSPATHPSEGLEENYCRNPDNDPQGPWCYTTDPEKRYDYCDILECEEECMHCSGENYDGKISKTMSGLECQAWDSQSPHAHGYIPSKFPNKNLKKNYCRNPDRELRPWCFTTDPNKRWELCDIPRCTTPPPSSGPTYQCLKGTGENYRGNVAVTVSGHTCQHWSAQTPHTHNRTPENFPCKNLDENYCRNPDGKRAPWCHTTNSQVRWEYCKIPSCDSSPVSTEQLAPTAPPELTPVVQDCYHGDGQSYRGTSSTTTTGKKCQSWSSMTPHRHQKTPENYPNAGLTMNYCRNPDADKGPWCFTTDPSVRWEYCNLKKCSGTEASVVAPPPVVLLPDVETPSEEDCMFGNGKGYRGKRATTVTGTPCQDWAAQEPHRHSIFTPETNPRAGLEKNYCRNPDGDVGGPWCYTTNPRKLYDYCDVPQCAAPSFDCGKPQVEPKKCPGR

[2] = molecular target: T2, trypsin (Bos taurus, UniProt P00760); experiment: Trypsin-inhibiting activity, synthetic substrate PS-915; type: biochemical; details: PS-915, pH 8.0, 37° C.
T2 construct: purchased Worthington 3703
T2 sequence (P00760 24-246): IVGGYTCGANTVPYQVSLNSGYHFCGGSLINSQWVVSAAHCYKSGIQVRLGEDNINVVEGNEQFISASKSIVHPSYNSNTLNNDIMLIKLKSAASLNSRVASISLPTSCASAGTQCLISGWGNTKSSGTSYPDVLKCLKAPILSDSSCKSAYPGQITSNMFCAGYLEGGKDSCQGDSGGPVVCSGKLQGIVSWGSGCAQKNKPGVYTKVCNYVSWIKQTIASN
Description: (§1) Synthetic substrates used for testing the inhibitory activity of the inhibitors on decomposition of substrates by the enzymes were as follows. For plasmin, PS-994 (H--D--Lys(Tos)--Phe--Lys--CHA·2HCl, mfd. by NITTO BOSEKI Co., Ltd.) was used; for thrombin and trypsin, PS-915 (H--D--Phe--Pro--Arg--CHA·2HCl, mfd. by NITTO BOSEKI Co., Ltd.); for Factor Xa, PS-2000 (Z--D--Lys--(HCO)--Gly--Arg--CHA·HCl, mfd. by NITTO BOSEKI Co., Ltd.); and for kallikrein, S-2302 (H--D--Pro--Phe--Arg--pNA, mfd., by Kabi Co., Ltd.).
(§2) As plasmin, standard plasmin of Sankyo Color Test α2 -D1 Kit was used in an amount of 0.3CU/ml. As thrombin, that of Sankyo Color Test ATIII kit was used in an amount of 1.2 NIHU/ml. As trypsin, that of cord 3703 of Worthington was used in an amount of 2 μg/ml. As human Factor Xa, that of Boehringer Manheim Co., Ltd. was used in an amount of 0.25 U/ml. As human plasma kallikrein, that of Kabi Co., Ltd. was used in an amount of 0.12 U/ml. As terminating color reagents, those for Sankyo Color Test Kit were used. The reactions were carried out at 37° C. unless otherwise specified.
Each of aqueous solutions (0.1 ml) of the inhibitors which solutions were various in their respective concentrations was added to 0.5 ml of a buffer solution (a 150 mM aqueous sodium chloride solution containing 150 mM Tris, pH 8.0), and the resulting solution was heated for 5 minutes. Then, 0.1 ml of a trypsin solution was added, followed by incubation for 5 minutes. Subsequently, 0.1 ml of a PS-915 solution (10 mM) was added, followed by incubation for 5 minutes. Thereafter, 2 ml of terminating color reagent [containing […] of soybean trypsin inhibitor (No. T-9003, available from Sigma Chemical Co.)] was added. After standing for 10 minutes, absorbance at 700 nm was measured and IC50 was determined in the manner described above.

[3] = molecular target: T3, human Factor Xa (Homo sapiens, UniProt P00742); experiment: Factor Xa-inhibiting activity, synthetic substrate PS-2000; type: biochemical; details: PS-2000, pH 8.5, 37° C.
T3 construct: purchased Boehringer Manheim Co., Ltd
Description: as §1, §2
Each of aqueous solutions (1 ml) of the inhibitors which solutions were various in their respective concentrations was added to 0.3 ml of a buffer solution (a 150 mM aqueous sodium chloride solution containing 50 mM Tris, pH 8.5 ), and the resulting solution was heated for 5 minutes. Then, 0.1 ml of a Factor Xa solution (a 150 mM aqueous sodium chloride solution containing 50 mM Tris and 20 mM calcium chloride, pH 8.5) was added, followed by incubation for 5 minutes. Subsequently, a 5% polyvinyl pyrrobidone solution (0.1 ml) containing 10 mM PS-2000 was added, followed by incubation for 5 min. Thereafter, 2 ml of terminating color reagent was added. After standing for 10 minutes, absorbance at 700 nm was measured and IC50 was determined in the manner described above.

[4] = molecular target: T1, plasmin; experiment: Plasmin-inhibiting activity, synthetic substrate PS-994; type: biochemical; design: purchased Sankyo (Color Test α2 -D1 Kit); details: PS-994, pH 7.8, 37° C.
Description: as §1, §2
Target sequence in this assay (P00747 581-810 limits assumed, species assumed): as the sequence (P00747 581-810 limits assumed) above
Target sequence in this assay (P00747 97-580 partner limits assumed, species assumed): as the sequence (P00747 97-580 partner limits assumed) above
Each of aqueous solutions (0.1 ml) of the inhibitors which solutions were various in their respective concentrations was added to 0.4 ml of a buffer solution (a 150 mM aqueous sodium chloride solution containing 100 mM Tris, pH 7.8), and the resulting solution was heated for 5 minutes. To this solution was added 0.2 ml of plasmin solution, followed by incubation for 5 minutes, and then 0.1 ml of a PS-994 solution (10 mM) was added, and then incubated for 5 minutes. After completion of the reaction, 2.0 ml of terminating color reagent was added, and after standing for 10 minutes, absorbance at 700 nm was measured. A concentration of the inhibitor in the reaction system at which the absorbance was one-half that obtained in the absence of the inhibitor was determined as IC50.

[5] = molecular target: T4, thrombin (Homo sapiens, UniProt P00734); experiment: Thrombin-inhibiting activity, synthetic substrate PS-915; type: biochemical; details: PS-915, pH 8.5, 37° C.
T4 construct: purchased Sankyo (Color Test ATIII kit)
Description: as §1, §2
Each of aqueous solutions (0.1 ml) of the inhibitors which solutions were various in their respective concentrations was added to 0.4 ml of a buffer solution (a 150 mM aqueous sodium chloride solution containing 150 mM Tris, pH 8.5), and the resulting solution was heated for 5 minutes. To this solution was added 0.2 ml of thrombin solution, followed by incubation for 5 minutes. Then, 0.1 ml of a PS-915 solution (10 mM) was added, followed by incubation for 5 minutes. Thereafter, 2 ml of terminating color reagent was added. After standing for 10 minutes, absorbance at 700 nm was measured, and IC50 was determined in the manner described above.

[6] = molecular target: T5, human plasma kallikrein (Homo sapiens, UniProt P03952); experiment: Kallikrein-inhibiting activity, synthetic substrate S-2302; type: biochemical; details: S-2302, pH 8.0, 37° C.
T5 construct: purchased Kabi Co., Ltd
Description: as §1, §2
Each of aqueous solutions (0.1 ml) of the inhibitors which solutions were various in their respective concentrations was added to 0.4 ml of a buffer solution (a 150 mM aqueous sodium chloride solution containing 50 mM Tris, pH 8.0), and the resulting mixture was heated for 5 minutes. Then, 0.1 ml of a kallikrein solution [containing 0.5% bovine serum albumin (No. A8022 available from Sigma Chemical Co.)] was added, followed by incubation for 5 minutes. Subsequently, a 10 mM S-2302 aqueous solution (0.1 ml) was added. The reaction was terminated by addition of a 20% aqueous acetic acid solution. Absorbance at 405 nm was measured and IC50 was measured in the manner described above.

[7] = molecular target: T1, plasmin; design: purchased Sankyo (Color Test α2 -D1 Kit); details: background, related art; cited from earlier work
Target sequence in this assay (P00747 581-810 limits assumed, species assumed): as the sequence (P00747 581-810 limits assumed) above
Target sequence in this assay (P00747 97-580 partner limits assumed, species assumed): as the sequence (P00747 97-580 partner limits assumed) above

[8] = system: thrombin and trypsin; details: background, related art; cited from earlier work
[9] = molecular target: T1, plasmin; design: purchased Sankyo (Color Test α2 -D1 Kit); details: cited from earlier work
Target sequence in this assay (P00747 581-810 limits assumed, species assumed): as the sequence (P00747 581-810 limits assumed) above
Target sequence in this assay (P00747 97-580 partner limits assumed, species assumed): as the sequence (P00747 97-580 partner limits assumed) above

[10] = molecular target: T1, plasmin; design: purchased Sankyo (Color Test α2 -D1 Kit); details: cited from earlier work; remark: listed apart in the source
Target sequence in this assay (P00747 581-810 limits assumed, species assumed): as the sequence (P00747 581-810 limits assumed) above
Target sequence in this assay (P00747 97-580 partner limits assumed, species assumed): as the sequence (P00747 97-580 partner limits assumed) above

T5 sequence (P03952 391-638 limits assumed): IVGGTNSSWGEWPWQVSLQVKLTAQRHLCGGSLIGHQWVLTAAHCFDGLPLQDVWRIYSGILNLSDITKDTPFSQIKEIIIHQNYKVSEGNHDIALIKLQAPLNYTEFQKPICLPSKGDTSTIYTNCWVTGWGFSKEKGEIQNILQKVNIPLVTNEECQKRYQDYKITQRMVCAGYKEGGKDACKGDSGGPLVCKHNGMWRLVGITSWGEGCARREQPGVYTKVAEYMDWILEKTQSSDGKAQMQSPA
T5 sequence (P03952 20-390 partner limits assumed): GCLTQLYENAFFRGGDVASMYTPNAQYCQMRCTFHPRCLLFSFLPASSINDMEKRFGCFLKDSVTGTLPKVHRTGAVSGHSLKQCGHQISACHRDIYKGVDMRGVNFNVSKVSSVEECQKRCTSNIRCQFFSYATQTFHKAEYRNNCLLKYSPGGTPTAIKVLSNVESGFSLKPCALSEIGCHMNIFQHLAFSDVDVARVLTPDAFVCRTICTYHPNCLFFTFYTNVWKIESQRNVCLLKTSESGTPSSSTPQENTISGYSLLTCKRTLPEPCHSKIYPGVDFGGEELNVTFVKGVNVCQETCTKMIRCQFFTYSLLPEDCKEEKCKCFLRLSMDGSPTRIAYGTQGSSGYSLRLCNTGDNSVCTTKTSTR
T3 sequence (P00742 235-488 limits assumed): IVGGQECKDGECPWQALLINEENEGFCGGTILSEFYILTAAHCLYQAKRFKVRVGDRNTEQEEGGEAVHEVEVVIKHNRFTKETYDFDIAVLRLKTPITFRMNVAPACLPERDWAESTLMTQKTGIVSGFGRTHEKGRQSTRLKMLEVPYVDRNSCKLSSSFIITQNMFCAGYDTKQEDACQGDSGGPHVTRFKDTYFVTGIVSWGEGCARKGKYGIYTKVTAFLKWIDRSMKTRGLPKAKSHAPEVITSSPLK
T3 sequence (P00742 41-179 partner limits assumed): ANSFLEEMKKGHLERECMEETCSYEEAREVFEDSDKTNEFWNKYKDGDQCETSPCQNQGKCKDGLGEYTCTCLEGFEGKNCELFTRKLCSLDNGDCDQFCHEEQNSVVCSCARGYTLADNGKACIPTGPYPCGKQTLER

IC50 ([1]; Table 4) | IC50 ([2]; Table 4) | IC50 ([3]; Table 4) | IC50 ([4]; Table 4) | IC50 ([5]; Table 4) | IC50 ([6]; Table 4) | Compound | antiplasmin activity [7] | inhibition of proteases other than plasmin, for example, thrombin and trypsin [8] | also measured
 |  |  |  |  |  | CC(=O)N[C@@H](CC(C)C)C(=O)N[C@@H](CC(C)C)C(=O)N[C@H](C=O)CCCCN [acetyl-L-leucyl-L-leucyl-lysinal] (Ac-Leu-Leu-Lys-aldehyde) | has antiplasmin activity |  | 
 |  |  |  |  |  | N=C(N)Nc1ccc(C(=O)Oc2ccc3cc(C(=N)N)ccc3c2)cc1 [Nafamstat] | have antiplamin activity | strongly inhibit | 
0.27 µM | 18 µM | 160 µM | 0.17 µM | > 1000 µM | 0.96 µM | Cc1ccc(S(=O)(=O)NCCCC[C@@H](N)C(=O)N[C@@H](Cc2ccccc2)C(=O)N[C@H](C=O)CCCCN)cc1 [Compound 7, N-ε-(p-Tosyl)-D-lysyl-L-phenylalanyl-L-lysinal dihydrochloride] (H-[dK](Tos)-Phe-Lys-aldehyde) |  |  | 
 |  |  |  |  |  | NC[C@H]1CC[C@H](C(=O)O)CC1 [t-AMCHA, trans-aminoethylcyclohexanecarboxylic acid] |  |  | inhibition of fibrinolysis by plasmin [9]: inhibit only fibrinolysis by plasmin; ability to inhibit decomposition of other substrates by plasmin, e.g. fibrinogen [10]: substantially no ability to inhibit
 |  |  |  |  |  | CC(=O)N[C@@H](CC(C)C)C(=O)N[C@@H](CC(C)C)C(=O)N[C@H](C=O)CCCNC(=N)N [Compound A4, AcLeuLeuArgH.1/2H2 SO4.H2 O (leupeptin), reference compound] |  |  | IC50 ([1]; Table 3): 5.5 µM; IC50 ([2]; Table 3): 0.78 µM; IC50 ([3]; Table 3): 14 µM; IC50 ([4]; Table 3): 20 µM; IC50 ([5]; Table 3): 590 µM; IC50 ([6]; Table 3): 130 µM
 |  |  |  |  |  | aprotinin | have antiplamin activity | strongly inhibit | 
 |  |  |  |  |  | NCCCCCC(=O)O [ε-Aminocaproic acid] |  |  | inhibition of fibrinolysis by plasmin ([9]; background, related art): inhibit only fibrinolysis by plasmin; ability to inhibit decomposition of other substrates by plasmin, e.g. fibrinogen ([10]; background, related art): substantially no ability to inhibit
 |  |  |  |  |  | CCOC(=O)c1ccc(OC(=O)CCCCCN=C(N)N)cc1.CS(=O)(=O)O [FOY] | have antiplamin activity | strongly inhibit | 
0.37 µM | 27 µM | 200 µM | 0.66 µM | > 1000 µM | 4.9 µM | CC(=O)N[C@H](CCCCNS(=O)(=O)c1ccc(C)cc1)C(=O)N[C@@H](Cc1ccccc1)C(=O)N[C@H](C=O)CCCCN [Compound 3, N-α-Acetyl-N-ε-(p-tosyl)-D-lysyl-L-phenylalanyl-L-lysinal hydrochloride] (Ac-[dK](Tos)-Phe-Lys-aldehyde) |  |  | 
0.78 µM | 3.2 µM | 16 µM | 0.032 µM | > 1000 µM | 0.54 µM | Cc1ccc(S(=O)(=O)NCCCC[C@@H](NS(=O)(=O)c2ccc(C)cc2)C(=O)N[C@@H](Cc2ccccc2)C(=O)N[C@H](C=O)CCCCN)cc1 [Compound 5, N-α-N-ε-Di(p-tosyl)-D-lysyl-L-phenylalanyl-L-lysinal hydrochloride] (Tos-[dK](Tos)-Phe-Lys-aldehyde) |  |  | 
 |  |  |  |  |  | CN(C)C(=O)COC(=O)Cc1ccc(OC(=O)c2ccc(NC(=N)N)cc2)cc1 [Camostat] | have antiplamin activity | strongly inhibit | 

Compound | IC50 ([1]; Table 4) | IC50 ([2]; Table 4) | IC50 ([3]; Table 4) | IC50 ([4]; Table 4) | IC50 ([5]; Table 4) | IC50 ([6]; Table 4) | antiplasmin activity [7] | inhibition of proteases other than plasmin, for example, thrombin and trypsin [8] | also measured
Cc1ccc(S(=O)(=O)NCCCC[C@@H](NC(=O)OCC(C)C)C(=O)N[C@@H](Cc2ccccc2)C(=O)N[C@@H](CCCCN)C(=O)CCl)cc1 [Compound 13, N-α-Isobutoxycarbonyl-N-ε-(p-tosyl)-D-lysyl-L-phenylalanyl-L-lysine chloromethyl ketone hydrochloride] | 0.44 µM | 0.68 µM | 2.9 µM | 0.031 µM | 2.5 µM | 0.11 µM |  |  | 
Cc1ccc(S(=O)(=O)NCCCC[C@@H](NC(=O)OCC(C)C)C(=O)N[C@@H](Cc2ccccc2)C(=O)N[C@H](C=O)CCCCN)cc1 [Compound 1, N-α-Isobutoxycarbonyl-N-ε-(p-tosyl)-D-lysyl-L-phenylalanyl-L-lysinal hydrochloride] | 0.23 µM | 2.8 µM | 8.1 µM | 0.034 µM | > 1000 µM | 0.18 µM |  |  | 

Reference: patent US4883863A, “Tripeptide derivatives and antiplasmin agents containing the same” (Nitto Boseki Co., Ltd., priority 1987, dated 1989)
